From US11572590B2, “Methods for evaluating tumor cell spheroids using 3D microfluidic cell culture device” (Dana-Farber Cancer Institute, Inc., priority 2017, dated 2023)
Like-named read-outs stand apart in the source and are kept apart here.

How the values were obtained:
Test in all cases: SelectScreen Kinase Profiling, single point inhibition and IC50 for off-target kinases
Assay type in all cases: biochemical
off-target kinases [1] = biological target: off-target kinases (Homo sapiens, UniProt O95819); conditions: MAP4K4 (HGK), ATP Km app, ZLYTE
Procedure: (§1) Biochemical single point inhibition and IC50 concentrations for TBK1, IKKε (IKBKE), and off-target kinases were determined at ThermoFisher Scientific using SelectScreen Kinase Profiling Services (Madison, Wis., USA) (Tables S4A and S4B-1-7). To determine cellular potency, the human colorectal cancer carcinoma cell line HCT116 (ATCC, Manassas, Va.) was maintained in T175 flasks in complete RPMI medium; RPMI 1640 supplemented with 10% FBS, 1× Penicillin-Streptomycin solution and 1×MEM (non-essential amino acids). HCT116 cells were grown to 90-95% confluency in T175 flasks containing complete RPMI medium and transfected in bulk using Lipofectamine 2000 (Invitrogen, Carlsbad, Calif.) with 70 μg of ISG54-luciferase reporter plasmid (Elim Biopharmaceuticals Inc., Hayward, Calif.). The reporter plasmid contains a luciferase gene expression cassette under the transcriptional regulation of the promoter of the human interferon stimulated gene 54 (ISG54). Transfection of the cells was allowed to take place for 6 hours, after which the cells were harvested by treatment with 0.25% trypsin EDTA (Corning Inc., Corning, N.Y.). Trypsinized cells were added to 384-well poly-d-lysine treated black clear bottom tissue culture assay plates (Greiner Bio-One GmbH, Kremsmünster, Austria) at a density of 20,000 cells/well in 80 μL of complete RPMI medium and incubated overnight. After 16-18 hours post-transfection, the assay plates were washed with PBS (Corning Inc., Corning, N.Y.), followed by addition of 80 μL/well of serum-free RPMI 1640 medium containing 1× Penicillin-Streptomycin solution, 1×MEM and 350 nL of DMSO or titrations of Compound 1. Compound 1 titrations were generated by 1.5-fold dilution steps in two overlapping serial dilution series to generate a 40-point compound dose range. After incubation at 37° C. for 1 hour, the cells were stimulated with Poly(I:C) (InvivoGen, San Diego, Calif.) at a final concentration of 15 μg/mL in Optimem media (Life Technologies, Rockville, Md.). The assay plates were incubated for 5 hours at 37° C., followed by addition of One-Glo luciferase firefly reagent (Promega, Madison, Wis.) at 1:1 volume/well and luminescence was measured in an EnVision Multilabel Plate Reader (PerkinElmer, Santa Clara, Calif.). The EC50 values were calculated from the fit of the dose-response curves to a four-parameter equation. All EC50 values represent geometric mean values of a minimum of four determinations.

off-target kinases [2] = biological target: T1, off-target kinases (Homo sapiens, UniProt P29323); conditions: EPHB2, ZLYTE, ATP Km app
T1 sequence (P29323 19-1055): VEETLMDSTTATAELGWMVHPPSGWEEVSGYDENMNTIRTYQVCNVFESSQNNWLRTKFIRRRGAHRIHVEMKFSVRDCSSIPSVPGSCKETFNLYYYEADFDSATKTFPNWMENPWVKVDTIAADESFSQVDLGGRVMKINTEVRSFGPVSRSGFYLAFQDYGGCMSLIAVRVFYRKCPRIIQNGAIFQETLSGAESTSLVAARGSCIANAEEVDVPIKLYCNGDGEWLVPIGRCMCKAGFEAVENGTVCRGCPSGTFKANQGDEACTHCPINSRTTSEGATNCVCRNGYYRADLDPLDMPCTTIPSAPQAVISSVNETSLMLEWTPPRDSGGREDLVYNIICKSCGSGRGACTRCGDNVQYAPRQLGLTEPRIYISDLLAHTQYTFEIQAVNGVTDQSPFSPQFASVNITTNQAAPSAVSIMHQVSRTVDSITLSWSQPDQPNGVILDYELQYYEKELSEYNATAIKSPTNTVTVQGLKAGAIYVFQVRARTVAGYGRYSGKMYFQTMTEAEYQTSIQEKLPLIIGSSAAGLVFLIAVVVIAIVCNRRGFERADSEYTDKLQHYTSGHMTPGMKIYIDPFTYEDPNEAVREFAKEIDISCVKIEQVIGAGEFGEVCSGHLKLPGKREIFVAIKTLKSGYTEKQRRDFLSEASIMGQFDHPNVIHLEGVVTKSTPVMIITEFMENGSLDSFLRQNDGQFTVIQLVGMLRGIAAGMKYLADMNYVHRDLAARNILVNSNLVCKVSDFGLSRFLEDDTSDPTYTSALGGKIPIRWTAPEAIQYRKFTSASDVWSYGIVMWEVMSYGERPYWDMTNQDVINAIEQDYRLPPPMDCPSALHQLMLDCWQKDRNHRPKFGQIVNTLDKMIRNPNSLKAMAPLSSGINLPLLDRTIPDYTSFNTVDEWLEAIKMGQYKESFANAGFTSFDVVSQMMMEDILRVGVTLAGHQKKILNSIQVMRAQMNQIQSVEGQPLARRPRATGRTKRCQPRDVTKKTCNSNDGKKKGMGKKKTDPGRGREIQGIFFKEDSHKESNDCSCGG
Procedure: as §1

off-target kinases [3] = biological target: T2, off-target kinases (Homo sapiens, UniProt Q8IW41); conditions: MAPKAPK5 (PRAK), ZLYTE, ATP Km app
T2 sequence (Q8IW41 1-473): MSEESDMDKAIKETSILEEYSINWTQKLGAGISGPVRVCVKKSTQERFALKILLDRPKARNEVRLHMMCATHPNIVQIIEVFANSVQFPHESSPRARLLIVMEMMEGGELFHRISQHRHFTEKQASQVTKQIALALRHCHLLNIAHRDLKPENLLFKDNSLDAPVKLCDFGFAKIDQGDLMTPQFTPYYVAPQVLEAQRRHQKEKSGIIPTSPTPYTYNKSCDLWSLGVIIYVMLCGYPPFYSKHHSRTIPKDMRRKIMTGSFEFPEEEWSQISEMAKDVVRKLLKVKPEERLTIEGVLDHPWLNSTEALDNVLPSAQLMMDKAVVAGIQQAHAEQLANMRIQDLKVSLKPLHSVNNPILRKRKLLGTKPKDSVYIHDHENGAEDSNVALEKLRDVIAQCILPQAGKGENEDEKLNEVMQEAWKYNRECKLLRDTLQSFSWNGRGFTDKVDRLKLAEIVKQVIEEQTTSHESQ
Procedure: as §1

Chain of off-target kinases (Homo sapiens, UniProt O95819) (O95819 whole entry): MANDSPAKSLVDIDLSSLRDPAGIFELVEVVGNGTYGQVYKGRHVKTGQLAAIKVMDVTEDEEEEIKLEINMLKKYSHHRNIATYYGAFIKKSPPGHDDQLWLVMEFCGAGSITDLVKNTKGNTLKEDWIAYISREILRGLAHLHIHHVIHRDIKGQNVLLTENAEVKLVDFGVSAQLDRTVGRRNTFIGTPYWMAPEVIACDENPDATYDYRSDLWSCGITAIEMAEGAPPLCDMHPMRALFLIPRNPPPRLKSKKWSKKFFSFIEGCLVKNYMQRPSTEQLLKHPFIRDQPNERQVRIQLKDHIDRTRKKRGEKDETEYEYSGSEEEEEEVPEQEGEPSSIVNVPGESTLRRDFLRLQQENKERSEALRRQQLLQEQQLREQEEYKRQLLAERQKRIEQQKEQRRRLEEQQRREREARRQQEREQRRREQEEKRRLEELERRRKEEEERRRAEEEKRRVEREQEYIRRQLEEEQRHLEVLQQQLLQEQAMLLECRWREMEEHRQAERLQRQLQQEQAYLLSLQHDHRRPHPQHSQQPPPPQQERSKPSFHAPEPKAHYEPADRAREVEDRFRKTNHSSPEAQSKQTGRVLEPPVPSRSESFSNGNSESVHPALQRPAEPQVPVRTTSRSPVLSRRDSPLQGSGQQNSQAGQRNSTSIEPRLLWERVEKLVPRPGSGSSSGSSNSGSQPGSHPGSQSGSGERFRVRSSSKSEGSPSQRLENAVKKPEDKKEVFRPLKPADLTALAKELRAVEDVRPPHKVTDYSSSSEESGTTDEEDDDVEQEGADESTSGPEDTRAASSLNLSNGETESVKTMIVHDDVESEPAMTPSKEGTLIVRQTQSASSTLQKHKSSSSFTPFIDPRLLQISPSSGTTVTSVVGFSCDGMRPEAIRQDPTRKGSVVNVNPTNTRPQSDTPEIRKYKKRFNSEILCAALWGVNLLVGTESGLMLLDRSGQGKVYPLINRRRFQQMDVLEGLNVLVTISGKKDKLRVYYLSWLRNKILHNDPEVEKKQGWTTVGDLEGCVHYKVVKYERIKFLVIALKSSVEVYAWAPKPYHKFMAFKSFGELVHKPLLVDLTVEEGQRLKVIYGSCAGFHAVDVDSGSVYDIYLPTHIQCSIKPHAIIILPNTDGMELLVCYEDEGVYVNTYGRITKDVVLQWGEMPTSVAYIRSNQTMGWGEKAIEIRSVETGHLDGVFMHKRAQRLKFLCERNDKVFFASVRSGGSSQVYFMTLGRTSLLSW

`N#Cc1cc(-c2ncnc(Nc3ccc(N4CCN(C5COC5)CC4)cc3)n2)ccc1OC1CCOCC1` [Compound 1, 5-(4-((4-(4-(oxetan-3-yl)piperazin-1-yl)phenyl)amino)-1,3,5-triazin-2-yl)-2-((tetrahydro-2H-pyran-4-yl)oxy)benzonitrile] showed an inhibition (off-target kinases [1]; read-out: % Inhibition 1) of 86%, an inhibition (off-target kinases [1]; read-out: % Inhibition 2) of 86% and an inhibition (off-target kinases [1]; read-out: % Inhibition Avg) of 86%. For the same compound, the inhibition (off-target kinases [2]; read-out: % Inhibition 1) was 14%, the inhibition (off-target kinases [2]; read-out: % Inhibition 2) was 17% and the inhibition (off-target kinases [2]; read-out: % Inhibition Avg) was 16%. The inhibition (off-target kinases [3]; read-out: % Inhibition 1) was 6%, the inhibition (off-target kinases [3]; read-out: % Inhibition 2) was 7% and the inhibition (off-target kinases [3]; read-out: % Inhibition Avg) was 6%.
